Data taken from US10421740B2, “Pesticidally active heterocyclic derivatives with sulphur containing substituents” (SYNGENTA PARTICIPATIONS AG, priority 2016, dated 2019).

Key:
[1] = system: Euschistus heros (Neotropical Brown Stink Bug); assay: Activity against Euschistus heros (neotropical brown stink bug); format: in vivo; conditions: 120 h, application rate 200 ppm, soybean leaves, N2 nymphs, 5 days after infestation, read-out: effect in at least one of the two categories (mortality or growth inhibition)
Protocol: Example B9: Activity Against Euschistus heros (Neotropical Brown Stink Bug)
Soybean leaves on agar in 24-well microtiter plates were sprayed with aqueous test solutions prepared from 10'000 ppm DMSO stock solutions. After drying the leaves were infested with N2 nymphs. The samples were assessed for mortality and growth inhibition in comparison to untreated samples 5 days after infestation.

[2] = system: Myzus persicae (Green Peach Aphid); assay: Activity against Myzus persicae (green peach aphid): systemic activity; format: in vivo; conditions: 144 h, test rate 24 ppm, roots of pea seedlings in test solution, 6 days
Protocol: Example B4: Activity Against Myzus persicae (Green Peach Aphid): Systemic Activity
Roots of pea seedlings infested with an aphid population of mixed ages were placed directly into aqueous test solutions prepared from 10'000 DMSO stock solutions. The samples were assessed for mortality 6 days after placing seedlings into test solutions.

[3] = system: Plutella xylostella (Diamond Back Moth); assay: Activity against Plutella xylostella (diamond back moth); format: in vivo; conditions: 120 h, application rate 200 ppm, artificial diet, L2 larvae, 5 days after infestation, read-out: effect in at least one of the two categories (mortality or growth inhibition)
Protocol: Example B5: Activity Against Plutella xylostella (Diamond Back Moth)
(§1) 24-well microtiter plates with artificial diet were treated with aqueous test solutions prepared from 10'000 ppm DMSO stock solutions by pipetting. After drying, the plates were infested with L2 larvae (10 to 15 per well). The samples were assessed for mortality and growth inhibition in comparison to untreated samples 5 days after infestation.

[4] = system: Myzus persicae (Green Peach Aphid); assay: Activity against Myzus persicae (green peach aphid): feeding/contact activity; format: in vivo; conditions: foliar, 144 h, application rate 200 ppm, sunflower leaf discs, aphid population of mixed ages, 6 days after infestation
Protocol: Example B3: Activity Against Myzus persicae (Green Peach Aphid): Feeding/Contact Activity
Sunflower leaf discs were placed onto agar in a 24-well microtiter plate and sprayed with aqueous test solutions prepared from 10'000 ppm DMSO stock solutions. After drying, the leaf discs were infested with an aphid population of mixed ages. The samples were assessed for mortality 6 days after infestation.

[5] = system: Spodoptera littoralis (Egyptian Cotton Leaf Worm); assay: Activity against Spodoptera littoralis (Egyptian cotton leaf worm), cotton leaf disc spray; format: in vivo; conditions: foliar, 72 h, application rate 200 ppm, cotton leaf discs, L1 larvae, 3 days after infestation
Protocol: Example B8: Activity Against Spodoptera littoralis (Egyptian Cotton Leaf Worm)
Cotton leaf discs were placed onto agar in 24-well microtiter plates and sprayed with aqueous test solutions prepared from 10'000 ppm DMSO stock solutions. After drying the leaf discs were infested with five L1 larvae. The samples were assessed for mortality, anti-feeding effect, and growth inhibition in comparison to untreated samples 3 days after infestation. Control of Spodoptera littoralis by a test sample is given when at least one of the categories mortality, anti-feedant effect, and growth inhibition is higher than the untreated sample.

[6] = system: Diabrotica balteata (Corn Root Worm); assay: Activity against Diabrotica balteata (corn root worm); format: in vivo; conditions: 96 h, application rate 200 ppm, maize sprouts, L2 larvae, 4 days after infestation, read-out: effect in at least one of the two categories (mortality or growth inhibition)
Protocol: Example B2: Activity Against Diabrotica balteata (Corn Root Worm)
as §1, with “Maize sprouts placed onto an agar layer in 24-well” for “24-well”, “plates” for “plates with artificial diet”, “spraying.” for “pipetting.”, “(6” for “(10”, “10” for “15”, “4” for “5”

[7] = system: Bemisia tabaci (Cotton White Fly); assay: Activity against Bemisia tabaci (cotton white fly): feeding/contact activity; format: in vivo; conditions: foliar, 144 h, application rate 200 ppm, cotton leaf discs, adult white flies, 6 days after incubation
Protocol: Example B1: Activity Against Bemisia tabaci (Cotton White Fly): Feeding/Contact Activity
Cotton leaf discs were placed on agar in 24-well microtiter plates and sprayed with aqueous test solutions prepared from 10'000 ppm DMSO stock solutions. After drying the leaf discs were infested with adult white flies. The samples were checked for mortality 6 days after incubation.

In the case of `CCn1nnc2nc(-c3nnc(-c4cc(C(F)(F)F)ccn4)n3C)c(S(=O)(=O)CC)cc21` [Compound A13, 1-ethyl-6-ethylsulfonyl-5-[4-methyl-5-[4-(trifluoromethyl)-2-pyridyl]-1,2,4-triazol-3-yl]triazolo[4,5-b]pyridine], the effect (mortality or growth inhibition) at 200 ppm [1] is reported as ≥ 80%, the mortality at 24 ppm [2] is reported as ≥ 80% and the percent control (mortality or growth inhibition) at 200 ppm [3] is reported as ≥ 80%. For the same compound, the mortality at 200 ppm [4] was ≥ 80%.
For `CCS(=O)(=O)c1cc2nnn(CCF)c2nc1-c1nnc(-c2cc(C(F)(F)F)ccn2)n1C` [Compound A15, 6-ethylsulfonyl-3-(2-fluoroethyl)-5-[4-methyl-5-[4-(trifluoromethyl)-2-pyridyl]-1,2,4-triazol-3-yl]triazolo[4,5-b]pyridine], the mortality at 24 ppm [2] was ≥ 80%.
`CCS(=O)(=O)c1cc2c(nnn2COC)nc1-c1nnc(-c2cc(C(F)(F)F)ccn2)n1C` [Compound A11, 6-ethylsulfonyl-1-(methoxymethyl)-5-[4-methyl-5-[4-(trifluoromethyl)-2-pyridyl]-1,2,4-triazol-3-yl]triazolo[4,5-b]pyridine] showed a melting point of 176 to 178 °C.
In the case of `CCS(=O)(=O)c1cc2c(nc1-c1nnc(-c3cc(C(F)(F)F)ccn3)n1C)CC(C)(C)O2` [Compound A19, 6-ethylsulfonyl-2,2-dimethyl-5-[4-methyl-5-[4-(trifluoromethyl)-2-pyridyl]-1,2,4-triazol-3-yl]-3H-furo[3,2-b]pyridine], the percent control (mortality, anti-feedant effect or growth inhibition) at 200 ppm [5] is reported as ≥ 80% and the percent control (mortality or growth inhibition) at 200 ppm [3] is reported as ≥ 80%.
Work on `CCS(=O)(=O)c1cc2[nH]nnc2nc1-c1nnc(-c2cc(C(F)(F)F)ccn2)n1C` [Compound A12, 6-ethylsulfonyl-5-[4-methyl-5-[4-(trifluoromethyl)-2-pyridyl]-1,2,4-triazol-3-yl]-1H-triazolo[4,5-b]pyridine] yielded a melting point of 303 to 305 °C.
With `CCS(=O)(=O)c1cc2c(nnn2C)nc1-c1nnc(-c2cc(C(F)(F)F)ccn2)n1C` [Compound A9, 6-ethylsulfonyl-1-methyl-5-[4-methyl-5-[4-(trifluoromethyl)-2-pyridyl]-1,2,4-triazol-3-yl]triazolo[4,5-b]pyridine] the effect (mortality or growth inhibition) at 200 ppm [1] was ≥ 80%, the percent control (mortality, anti-feedant effect or growth inhibition) at 200 ppm [5] was ≥ 80% and the percent control (mortality or growth inhibition) at 200 ppm [3] was ≥ 80%. For the same compound, the percent effect (mortality or growth inhibition) at 200 ppm [6] was ≥ 80%, the mortality at 200 ppm [4] was ≥ 80% and the mortality at 200 ppm [7] was ≥ 80%.
In the case of `CCS(=O)(=O)c1cc2c(nnn2CCF)nc1-c1nnc(-c2cc(C(F)(F)F)ccn2)n1C` [Compound A14, 6-ethylsulfonyl-1-(2-fluoroethyl)-5-[4-methyl-5-[4-(trifluoromethyl)-2-pyridyl]-1,2,4-triazol-3-yl]triazolo[4,5-b]pyridine], the effect (mortality or growth inhibition) at 200 ppm [1] is reported as ≥ 80%, the mortality at 24 ppm [2] is reported as ≥ 80% and the percent control (mortality or growth inhibition) at 200 ppm [3] is reported as ≥ 80%. The mortality at 200 ppm [4] was ≥ 80%.
With `CCS(=O)(=O)c1cc2nn(COC)nc2nc1-c1nnc(-c2cc(C(F)(F)F)ccn2)n1C` [Compound A17, 6-ethylsulfonyl-2-(methoxymethyl)-5-[4-methyl-5-[4-(trifluoromethyl)-2-pyridyl]-1,2,4-triazol-3-yl]triazolo[4,5-b]pyridine] the mortality at 24 ppm [2] was ≥ 80%.
With `CCS(=O)(=O)c1cc2nn(C)nc2nc1-c1nnc(-c2cc(C(F)(F)F)ccn2)n1C` [Compound A18, 6-ethylsulfonyl-2-methyl-5-[4-methyl-5-[4-(trifluoromethyl)-2-pyridyl]-1,2,4-triazol-3-yl]triazolo[4,5-b]pyridine] the effect (mortality or growth inhibition) at 200 ppm [1] was ≥ 80%, the mortality at 24 ppm [2] was ≥ 80% and the mortality at 200 ppm [4] was ≥ 80%.
For `CCS(=O)(=O)c1cc2nc(C(F)(F)F)sc2cc1-c1nnc(-c2cc(C(F)(F)F)ccn2)n1C` [Compound A6, 5-ethylsulfonyl-6-[4-methyl-5-[4-(trifluoromethyl)-2-pyridyl]-1,2,4-triazol-3-yl]-2-(trifluoromethyl)-1,3-benzothiazole], the percent control (mortality, anti-feedant effect or growth inhibition) at 200 ppm [5] was ≥ 80%, the percent control (mortality or growth inhibition) at 200 ppm [3] was ≥ 80% and the percent effect (mortality or growth inhibition) at 200 ppm [6] was ≥ 80%. The mortality at 200 ppm [7] was ≥ 80%.
For `CCS(=O)(=O)c1cc2ccccc2nc1-c1nnc(-c2cc(C(F)(F)F)ncn2)n1C` [Compound A4, 3-ethylsulfonyl-2-[4-methyl-5-[6-(trifluoromethyl)pyrimidin-4-yl]-1,2,4-triazol-3-yl]quinoline], the percent control (mortality or growth inhibition) at 200 ppm [3] was ≥ 80%, the percent effect (mortality or growth inhibition) at 200 ppm [6] was ≥ 80% and the mortality at 200 ppm [4] was ≥ 80%.
In the case of `CCSc1cc2sc(C(F)(F)F)nc2cc1-c1nnc(-c2cc(C(F)(F)F)ccn2)n1C` [Compound A7, 6-ethylsulfanyl-5-[4-methyl-5-[4-(trifluoromethyl)-2-pyridyl]-1,2,4-triazol-3-yl]-2-(trifluoromethyl)-1,3-benzothiazole], the percent control (mortality, anti-feedant effect or growth inhibition) at 200 ppm [5] is reported as ≥ 80% and the percent effect (mortality or growth inhibition) at 200 ppm [6] is reported as ≥ 80%.
With `CCS(=O)(=O)c1cc2c(nc1-c1nnc(-c3cc(C(F)(F)F)ncn3)n1C)CC(C)(C)O2` [Compound A20, 6-ethylsulfonyl-2,2-dimethyl-5-[4-methyl-5-[6-(trifluoromethyl)pyrimidin-4-yl]-1,2,4-triazol-3-yl]-3H-furo[3,2-b]pyridine] the effect (mortality or growth inhibition) at 200 ppm [1] was ≥ 80%, the percent control (mortality, anti-feedant effect or growth inhibition) at 200 ppm [5] was ≥ 80% and the mortality at 24 ppm [2] was ≥ 80%. For the same compound, the percent effect (mortality or growth inhibition) at 200 ppm [6] was ≥ 80%.
In the case of `CCS(=O)(=O)c1cc2ccccc2nc1-c1nnc(-c2cc(C(F)(F)F)ccn2)n1C` [Compound A3, 3-ethylsulfonyl-2-[4-methyl-5-[4-(trifluoromethyl)-2-pyridyl]-1,2,4-triazol-3-yl]quinoline], the percent control (mortality, anti-feedant effect or growth inhibition) at 200 ppm [5] is reported as ≥ 80%, the mortality at 24 ppm [2] is reported as ≥ 80% and the percent control (mortality or growth inhibition) at 200 ppm [3] is reported as ≥ 80%. For the same compound, the percent effect (mortality or growth inhibition) at 200 ppm [6] was ≥ 80% and the mortality at 200 ppm [4] was ≥ 80%.
`CCS(=O)(=O)c1cc2nnn(COC)c2nc1-c1nnc(-c2cc(C(F)(F)F)ccn2)n1C` [Compound A16, 6-ethylsulfonyl-3-(methoxymethyl)-5-[4-methyl-5-[4-(trifluoromethyl)-2-pyridyl]-1,2,4-triazol-3-yl]triazolo[4,5-b]pyridine] showed a melting point of 198 to 200 °C.
For `CCS(=O)(=O)c1cc2nnn(C)c2nc1-c1nnc(-c2cc(C(F)(F)F)ccn2)n1C` [Compound A10, 6-ethylsulfonyl-3-methyl-5-[4-methyl-5-[4-(trifluoromethyl)-2-pyridyl]-1,2,4-triazol-3-yl]triazolo[4,5-b]pyridine], the percent control (mortality, anti-feedant effect or growth inhibition) at 200 ppm [5] was ≥ 80%, the mortality at 24 ppm [2] was ≥ 80% and the percent control (mortality or growth inhibition) at 200 ppm [3] was ≥ 80%. The percent effect (mortality or growth inhibition) at 200 ppm [6] was ≥ 80%, the mortality at 200 ppm [4] was ≥ 80% and the mortality at 200 ppm [7] was ≥ 80%.
With `CCS(=O)(=O)c1cc2c(cc1-c1nnc(-c3ccc(C(F)(F)F)nc3)n1C)nc(C(F)(F)F)n2C` [Compound A5, 6-ethylsulfonyl-1-methyl-5-[4-methyl-5-[6-(trifluoromethyl)-3-pyridyl]-1,2,4-triazol-3-yl]-2-(trifluoromethyl)benzimidazole] the effect (mortality or growth inhibition) at 200 ppm [1] was ≥ 80%, the percent control (mortality, anti-feedant effect or growth inhibition) at 200 ppm [5] was ≥ 80% and the mortality at 24 ppm [2] was ≥ 80%. For the same compound, the mortality at 200 ppm [4] was ≥ 80%.
